Measurements published in ChEMBL document CHEMBL3734667 (Bioorg Med Chem, 2015).
Active and inactive are the calls of the source. The rule behind the calls is not given here.

Tested on: not listed separately
Test: Cytotoxicity against human MT4 cells assessed as cell viability after 96 hrs by MTT assay
Format: cell-based
Conditions: not given
For `Clc1cc2nnn(C3CCCCO3)c2cc1Cl` (stereo not drawn), the CC50 at 96 h was > 100 µM.
With `CC(C)(CCCOc1ccc(-n2nc3ccccc3n2)cc1)C(=O)O` the CC50 at 96 h was 47 µM.
`COc1ccc2nn(-c3ccc(OCCCC(C)(C)C(=O)O)cc3)nc2c1` gave a CC50 at 96 h of 28 µM.
`CC(C)(COc1ccc(-n2nc3ccc(Cl)cc3n2)cc1)C(=O)O` showed a CC50 at 96 h of 94 µM.

Tested on: not listed separately
Test: Cytotoxicity against MDBK cells assessed as cell viability after 48 to 96 hrs by MTT assay
Format: cell-based, Bos taurus
Conditions: cattle
With `Clc1cc2nnn(C3CCCCO3)c2cc1Cl` (stereo not drawn) the CC50 was > 100 µM.
For `CC(C)(CCCOc1ccc(-n2nc3ccccc3n2)cc1)C(=O)O`, the CC50 was 61 µM.
For `COc1ccc2nn(-c3ccc(OCCCC(C)(C)C(=O)O)cc3)nc2c1`, the CC50 was > 100 µM.
With `CC(C)(COc1ccc(-n2nc3ccc(Cl)cc3n2)cc1)C(=O)O` the CC50 was 52 µM.

Tested on: not listed separately
Test: Cytotoxicity against BHK cells assessed as cell viability after 48 to 96 hrs by MTT assay
Format: cell-based, Mesocricetus auratus
Conditions: hamster
For `Clc1cc2nnn(C3CCCCO3)c2cc1Cl` (stereo not drawn), the CC50 was > 100 µM.
For `CC(C)(CCCOc1ccc(-n2nc3ccccc3n2)cc1)C(=O)O`, the CC50 was 31 µM.
`COc1ccc2nn(-c3ccc(OCCCC(C)(C)C(=O)O)cc3)nc2c1` gave a CC50 of 50 µM.
Compound `CC(C)(COc1ccc(-n2nc3ccc(Cl)cc3n2)cc1)C(=O)O` has a CC50 of 47 µM.

Tested on: not listed separately
Test: Cytotoxicity against african green monkey Vero 76 cells assessed as cell viability after 48 to 96 hrs by crystal violet staining method
Format: cell-based
Conditions: chlorocebus sabaeus
In the case of `Clc1cc2nnn(C3CCCCO3)c2cc1Cl` (stereo not drawn), the CC50 is reported as ≥ 100 µM.
With `CC(C)(CCCOc1ccc(-n2nc3ccccc3n2)cc1)C(=O)O` the CC50 was 25 µM.
With `COc1ccc2nn(-c3ccc(OCCCC(C)(C)C(=O)O)cc3)nc2c1` the CC50 was 20 µM.
`CC(C)(COc1ccc(-n2nc3ccc(Cl)cc3n2)cc1)C(=O)O` showed a CC50 of 40 µM.

Tested on: Bovine viral diarrhea virus 1
Test: Antiviral activity against BVDV infected in MDBK cells assessed as inhibition of virus-induced cytopathogenicity after 3 to 4 days by MTT assay
Format: functional, organism-based
Conditions: Bovine viral diarrhea virus isolates and strains
For `Clc1cc2nnn(C3CCCCO3)c2cc1Cl` (stereo not drawn), the EC50 was > 100 µM.
With `CC(C)(CCCOc1ccc(-n2nc3ccccc3n2)cc1)C(=O)O` the EC50 was 27 µM.
Compound `COc1ccc2nn(-c3ccc(OCCCC(C)(C)C(=O)O)cc3)nc2c1` has an EC50 of 44 µM.
With `CC(C)(COc1ccc(-n2nc3ccc(Cl)cc3n2)cc1)C(=O)O` the EC50 was 21 µM.

Tested on: Yellow fever virus
Test: Antiviral activity against YFV infected in BHK-21 cells assessed as inhibition of virus-induced cytopathogenicity after 3 to 4 days by MTT assay
Format: functional, organism-based
Conditions: not given
For `Clc1cc2nnn(C3CCCCO3)c2cc1Cl` (stereo not drawn), the EC50 was > 100 µM.
For `CC(C)(CCCOc1ccc(-n2nc3ccccc3n2)cc1)C(=O)O`, the EC50 was > 100 µM.
With `COc1ccc2nn(-c3ccc(OCCCC(C)(C)C(=O)O)cc3)nc2c1` the EC50 was > 100 µM.
In the case of `CC(C)(COc1ccc(-n2nc3ccc(Cl)cc3n2)cc1)C(=O)O`, the EC50 is reported as > 100 µM.

Tested on: Mammalian orthoreovirus 1
Test: Antiviral activity against Reo-1 virus infected in BHK-21 cells assessed as inhibition of virus-induced cytopathogenicity after 3 to 4 days by MTT assay
Format: functional, cell-based
Conditions: Mammalian orthoreovirus 1, BHK-21
For `Clc1cc2nnn(C3CCCCO3)c2cc1Cl` (stereo not drawn), the EC50 was > 100 µM.

Tested on: Coxsackievirus B5
Test: Antiviral activity against human CVB5 infected in african green monkey Vero76 cells assessed as inhibition of virus-induced cytopathogenicity after 3 days by plaque reduction assay
Format: functional, organism-based
Conditions: Enterovirus B, Vero 76, 72 h
Work on `CC(C)(CCCOc1ccc(-n2nc3ccccc3n2)cc1)C(=O)O` yielded an EC50 of 4000 nM.
With `COc1ccc2nn(-c3ccc(OCCCC(C)(C)C(=O)O)cc3)nc2c1` the EC50 was 2000 nM.
With `CC(C)(COc1ccc(-n2nc3ccc(Cl)cc3n2)cc1)C(=O)O` the EC50 was 1700 nM.

Tested on: Human orthopneumovirus
Test: Antiviral activity against human RSV infected in african green monkey Vero76 cells assessed as inhibition of virus-induced cytopathogenicity after 5 days by plaque reduction assay
Format: functional, organism-based
Conditions: human respiratory syncytial virus, Vero 76, 120 h
`CC(C)(CCCOc1ccc(-n2nc3ccccc3n2)cc1)C(=O)O` gave an EC50 of 5 µM.
For `COc1ccc2nn(-c3ccc(OCCCC(C)(C)C(=O)O)cc3)nc2c1`, the EC50 was > 100 µM.
Compound `CC(C)(COc1ccc(-n2nc3ccc(Cl)cc3n2)cc1)C(=O)O` has an EC50 of 12 µM.

Tested on: Poliovirus 1
Test: Antiviral activity against Human poliovirus 1 Sabin infected in african green monkey Vero76 cells assessed as inhibition of virus-induced cytopathogenicity by plaque reduction assay
Format: functional, organism-based
Conditions: Enterovirus C, Vero 76
In the case of `Clc1cc2nnn(C3CCCCO3)c2cc1Cl` (stereo not drawn), the EC50 is reported as 60 µM.
For `CC(C)(CCCOc1ccc(-n2nc3ccccc3n2)cc1)C(=O)O`, the EC50 was > 100 µM.
With `COc1ccc2nn(-c3ccc(OCCCC(C)(C)C(=O)O)cc3)nc2c1` the EC50 was > 100 µM.
In the case of `CC(C)(COc1ccc(-n2nc3ccc(Cl)cc3n2)cc1)C(=O)O`, the EC50 is reported as > 100 µM.

Tested on: not listed separately
Test: Selectivity index, ratio of CC50 for MDBK cells to EC50 for BVDV
Set-up: species or system Bovine viral diarrhea virus 1
Conditions: not given
For `CC(C)(CCCOc1ccc(-n2nc3ccccc3n2)cc1)C(=O)O`, the “Ratio CC50/EC50” value was 2.26.
In the case of `COc1ccc2nn(-c3ccc(OCCCC(C)(C)C(=O)O)cc3)nc2c1`, the “Ratio CC50/EC50” value is reported as 2.27.
In the case of `CC(C)(COc1ccc(-n2nc3ccc(Cl)cc3n2)cc1)C(=O)O`, the “Ratio CC50/EC50” value is reported as 2.47.

Tested on: not listed separately
Test: Selectivity index, ratio of CC50 for african green monkey Vero76 cells to EC50 for human CVB5
Set-up: species or system Coxsackievirus B5, Vero 76
Conditions: not given
In the case of `CC(C)(CCCOc1ccc(-n2nc3ccccc3n2)cc1)C(=O)O`, the “Ratio CC50/EC50” value is reported as 6.25.
In the case of `COc1ccc2nn(-c3ccc(OCCCC(C)(C)C(=O)O)cc3)nc2c1`, the “Ratio CC50/EC50” value is reported as 10.
In the case of `CC(C)(COc1ccc(-n2nc3ccc(Cl)cc3n2)cc1)C(=O)O`, the “Ratio CC50/EC50” value is reported as 23.53.

Tested on: not listed separately
Test: Selectivity index, ratio of CC50 for african green monkey Vero76 cells to EC50 for human RSV
Set-up: species or system human respiratory syncytial virus, Vero 76
Conditions: not given
For `CC(C)(CCCOc1ccc(-n2nc3ccccc3n2)cc1)C(=O)O`, the “Ratio CC50/EC50” value was 5.
For `CC(C)(COc1ccc(-n2nc3ccc(Cl)cc3n2)cc1)C(=O)O`, the “Ratio CC50/EC50” value was 3.33.

Tested on: not listed separately
Test: Selectivity index, ratio of CC50 for african green monkey Vero76 cells to EC50 for human Sb-1
Set-up: species or system Human poliovirus 1 strain Sabin, Vero 76
Conditions: not given
For `Clc1cc2nnn(C3CCCCO3)c2cc1Cl` (stereo not drawn), the “Ratio CC50/EC50” value was 1.67.

Tested on: Human immunodeficiency virus 1
Test: Antiviral activity against HIV-1 infected in MT4 cells assessed as inhibition of virus-induced cytopathogenicity after 4 days by MTT assay
Format: functional, organism-based
Conditions: Human immunodeficiency virus 1, MT4, 96 h
With `Clc1cc2nnn(C3CCCCO3)c2cc1Cl` (stereo not drawn) the EC50 was > 100 µM.
With `CC(C)(CCCOc1ccc(-n2nc3ccccc3n2)cc1)C(=O)O` the EC50 was > 100 µM.
For `COc1ccc2nn(-c3ccc(OCCCC(C)(C)C(=O)O)cc3)nc2c1`, the EC50 was > 100 µM.
With `CC(C)(COc1ccc(-n2nc3ccc(Cl)cc3n2)cc1)C(=O)O` the EC50 was > 100 µM.

Biological target: T1, Peroxisome proliferator-activated receptor alpha (Homo sapiens) (UniProt Q07869)
T1 sequence (whole entry): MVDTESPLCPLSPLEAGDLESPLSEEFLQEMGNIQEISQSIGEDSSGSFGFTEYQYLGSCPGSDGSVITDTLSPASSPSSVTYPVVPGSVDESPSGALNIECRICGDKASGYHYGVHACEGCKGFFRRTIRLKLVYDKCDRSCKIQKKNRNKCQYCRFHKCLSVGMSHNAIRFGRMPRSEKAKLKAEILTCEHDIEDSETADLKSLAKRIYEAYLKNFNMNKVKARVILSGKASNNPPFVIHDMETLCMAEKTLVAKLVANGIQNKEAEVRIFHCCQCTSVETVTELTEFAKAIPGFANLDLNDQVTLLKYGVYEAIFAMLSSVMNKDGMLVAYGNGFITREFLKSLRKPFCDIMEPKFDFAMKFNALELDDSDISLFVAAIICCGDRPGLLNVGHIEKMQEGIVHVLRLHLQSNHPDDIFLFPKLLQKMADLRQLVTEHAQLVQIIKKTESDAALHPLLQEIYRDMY
Test: Agonist activity at human PPAR alpha in human HepG2 cells after 20 hrs by luciferase reporter assay
Format: cell-based
Conditions: not given
With `CC(C)(CCCOc1ccc(-n2nc3ccccc3n2)cc1)C(=O)O` the Activity was “inactive”.

Biological target: T2, Peroxisome proliferator-activated receptor gamma (Homo sapiens) (UniProt P37231)
T2 sequence (whole entry): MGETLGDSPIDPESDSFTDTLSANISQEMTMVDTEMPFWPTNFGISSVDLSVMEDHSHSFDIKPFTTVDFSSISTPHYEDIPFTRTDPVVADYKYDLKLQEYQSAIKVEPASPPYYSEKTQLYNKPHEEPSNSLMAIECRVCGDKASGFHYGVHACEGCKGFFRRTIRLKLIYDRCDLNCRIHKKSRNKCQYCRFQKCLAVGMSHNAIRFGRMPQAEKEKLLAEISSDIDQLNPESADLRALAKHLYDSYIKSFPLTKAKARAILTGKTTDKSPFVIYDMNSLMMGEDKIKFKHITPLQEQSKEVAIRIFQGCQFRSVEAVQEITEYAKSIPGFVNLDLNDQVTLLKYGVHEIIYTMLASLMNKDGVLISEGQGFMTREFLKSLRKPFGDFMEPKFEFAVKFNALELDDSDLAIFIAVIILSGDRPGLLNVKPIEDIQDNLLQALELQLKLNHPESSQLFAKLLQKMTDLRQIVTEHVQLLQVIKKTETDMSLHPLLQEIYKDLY
Test: Agonist activity at human PPAR gamma in human HepG2 cells after 20 hrs by luciferase reporter assay
Format: cell-based
Conditions: not given
For `CC(C)(CCCOc1ccc(-n2nc3ccccc3n2)cc1)C(=O)O`, the Activity was “inactive”.

Tested on: Human alphaherpesvirus 1
Test: Antiviral activity against HSV1
Format: functional, organism-based
Conditions: not given
In the case of `Clc1cc2nnn(C3CCCCO3)c2cc1Cl` (stereo not drawn), the EC50 is reported as > 100 µM.

Tested on: Vesicular stomatitis virus
Test: Antiviral activity against VSV
Format: functional, organism-based
Conditions: not given
With `Clc1cc2nnn(C3CCCCO3)c2cc1Cl` (stereo not drawn) the EC50 was > 100 µM.
With `CC(C)(CCCOc1ccc(-n2nc3ccccc3n2)cc1)C(=O)O` the EC50 was > 100 µM.
For `COc1ccc2nn(-c3ccc(OCCCC(C)(C)C(=O)O)cc3)nc2c1`, the EC50 was > 100 µM.
With `CC(C)(COc1ccc(-n2nc3ccc(Cl)cc3n2)cc1)C(=O)O` the EC50 was > 100 µM.

Tested on: Vaccinia virus
Test: Antiviral activity against Vaccinia virus
Format: functional, organism-based
Conditions: Orthopoxvirus vaccinia
With `CC(C)(CCCOc1ccc(-n2nc3ccccc3n2)cc1)C(=O)O` the EC50 was > 100 µM.
With `COc1ccc2nn(-c3ccc(OCCCC(C)(C)C(=O)O)cc3)nc2c1` the EC50 was > 100 µM.
For `CC(C)(COc1ccc(-n2nc3ccc(Cl)cc3n2)cc1)C(=O)O`, the EC50 was > 100 µM.
